Measurements from ChEMBL document CHEMBL4052759, “Discovery of DS79182026: A potent orally active hepcidin production inhibitor” (Bioorg Med Chem Lett, 2017).

Experiments:
[1] = molecular target: cAMP-dependent protein kinase catalytic subunit PRKX (Homo sapiens) (UniProt P51817); test: Inhibition of PRKX (unknown origin) at 0.49 uM relative to control
[2] = molecular target: RAF proto-oncogene serine/threonine-protein kinase (Homo sapiens) (UniProt P04049); test: Inhibition of c-Raf (unknown origin) at 0.49 uM relative to control
[3] = molecular target: T1, Serine/threonine-protein kinase Chk1 (Homo sapiens) (UniProt O14757); test: Inhibition of CHK1 (unknown origin) at 0.49 uM relative to control
T1 sequence (whole entry): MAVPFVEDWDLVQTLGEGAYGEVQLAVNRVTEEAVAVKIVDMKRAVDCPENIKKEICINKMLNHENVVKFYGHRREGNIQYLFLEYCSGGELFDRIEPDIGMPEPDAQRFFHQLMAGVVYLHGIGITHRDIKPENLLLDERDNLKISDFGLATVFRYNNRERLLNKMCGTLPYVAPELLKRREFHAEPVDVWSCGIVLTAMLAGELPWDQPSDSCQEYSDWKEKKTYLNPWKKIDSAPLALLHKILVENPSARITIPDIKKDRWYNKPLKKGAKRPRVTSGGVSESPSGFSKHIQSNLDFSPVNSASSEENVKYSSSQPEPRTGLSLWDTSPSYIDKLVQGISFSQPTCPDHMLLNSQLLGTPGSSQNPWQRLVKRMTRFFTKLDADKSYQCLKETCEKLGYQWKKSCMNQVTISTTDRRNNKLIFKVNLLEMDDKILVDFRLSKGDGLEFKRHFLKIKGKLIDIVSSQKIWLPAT

[4] = molecular target: Tyrosine-protein kinase Tec (Homo sapiens) (UniProt P42680); test: Inhibition of TEC (unknown origin) at 0.49 uM relative to control
[5] = molecular target: Glycogen synthase kinase-3 alpha (Homo sapiens) (UniProt P49840); test: Inhibition of GSK3-alpha (unknown origin) at 0.49 uM relative to control
[6] = molecular target: Vascular endothelial growth factor receptor 3 (Homo sapiens) (UniProt P35916); test: Inhibition of FLT4 (unknown origin) at 0.49 uM relative to control
[7] = molecular target: Serine/threonine-protein kinase Nek1 (Homo sapiens) (UniProt Q96PY6); test: Inhibition of NEK1 (unknown origin) at 0.49 uM relative to control
[8] = molecular target: MAP/microtubule affinity-regulating kinase 3 (Homo sapiens) (UniProt P27448); test: Inhibition of c-TAK1 (unknown origin) at 0.49 uM relative to control
[9] = molecular target: Dual specificity tyrosine-phosphorylation-regulated kinase 3 (Homo sapiens) (UniProt O43781); test: Inhibition of DYRK3 (unknown origin) at 0.45 uM relative to control
[10] = molecular target: ALK tyrosine kinase receptor (Homo sapiens) (UniProt Q9UM73); test: Inhibition of ALK (unknown origin) at 0.45 uM relative to control
[11] = molecular target: NUAK family SNF1-like kinase 1 (Homo sapiens) (UniProt O60285); test: Inhibition of NuaK1 (unknown origin) at 0.45 uM relative to control
[12] = molecular target: Insulin receptor (Homo sapiens) (UniProt P06213); test: Inhibition of INSR (unknown origin) at 0.45 uM relative to control
[13] = molecular target: Casein kinase I isoform gamma-3 (Homo sapiens) (UniProt Q9Y6M4); test: Inhibition of CSNK1G3 (unknown origin) at 0.45 uM relative to control
[14] = molecular target: Phosphorylase b kinase gamma catalytic chain, liver/testis isoform (Homo sapiens) (UniProt P15735); test: Inhibition of PhKg2 (unknown origin) at 0.45 uM relative to control
[15] = molecular target: Ribosomal protein S6 kinase alpha-4 (Homo sapiens) (UniProt O75676); test: Inhibition of MSK2 (unknown origin) at 0.45 uM relative to control
[16] = tested on: Epidermal growth factor receptor (Homo sapiens), P00533 [T790M]; test: Inhibition of EGFR T790M mutant (unknown origin) at 0.45 uM relative to control
[17] = molecular target: Serine/threonine-protein kinase PAK 4 (Homo sapiens) (UniProt O96013); test: Inhibition of PAK4 (unknown origin) at 0.45 uM relative to control
[18] = molecular target: Homeodomain-interacting protein kinase 2 (Homo sapiens) (UniProt Q9H2X6); test: Inhibition of HIPK2 (unknown origin) at 0.45 uM relative to control
[19] = molecular target: MAP/microtubule affinity-regulating kinase 3 (Homo sapiens) (UniProt P27448); test: Inhibition of c-TAK1 (unknown origin) at 0.45 uM relative to control
[20] = tested on: Mitogen-activated protein kinase 14 (Homo sapiens), Q16539 [T106M]; test: Inhibition of SAPK2a T106M mutant (unknown origin) at 0.45 uM relative to control
[21] = molecular target: Calcium/calmodulin-dependent protein kinase type II subunit alpha (Homo sapiens) (UniProt Q9UQM7); test: Inhibition of CaMK2a (unknown origin) at 0.45 uM relative to control
[22] = molecular target: NT-3 growth factor receptor (Homo sapiens) (UniProt Q16288); test: Inhibition of TRKC (unknown origin) at 0.45 uM relative to control
[23] = molecular target: T2, MAP kinase-activated protein kinase 5 (Homo sapiens) (UniProt Q8IW41); test: Inhibition of PRAK (unknown origin) at 0.078 uM relative to control
T2 sequence (whole entry): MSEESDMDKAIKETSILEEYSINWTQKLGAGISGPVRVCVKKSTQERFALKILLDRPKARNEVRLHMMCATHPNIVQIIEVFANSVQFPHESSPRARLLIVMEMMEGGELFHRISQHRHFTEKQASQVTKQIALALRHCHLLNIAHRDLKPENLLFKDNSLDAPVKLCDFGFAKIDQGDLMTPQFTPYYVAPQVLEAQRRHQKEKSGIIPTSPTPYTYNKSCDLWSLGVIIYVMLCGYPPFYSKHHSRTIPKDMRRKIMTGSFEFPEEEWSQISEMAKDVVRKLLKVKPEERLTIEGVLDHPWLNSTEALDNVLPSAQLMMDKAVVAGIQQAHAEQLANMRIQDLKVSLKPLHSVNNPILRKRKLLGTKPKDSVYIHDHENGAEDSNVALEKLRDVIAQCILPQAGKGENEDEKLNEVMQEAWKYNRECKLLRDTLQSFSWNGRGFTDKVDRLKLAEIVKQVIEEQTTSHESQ

[24] = molecular target: Protein kinase C beta type (Homo sapiens) (UniProt P05771); test: Inhibition of PKC-beta2 (unknown origin) at 0.078 uM relative to control

An inhibition [1] of -1.7%, an inhibition [2] of 1% and an inhibition [3] of 0% were found for Cc1[nH]nc(C2CC2)c1-c1ccc2c(NC(=O)C3CC3)noc2c1 in this work. For the same compound, the inhibition [4] was 3.7%, the inhibition [5] was 2% and the inhibition [6] was -2.7%. For the same compound, the inhibition [7] was 0.3% and the inhibition [8] was 6%.
An inhibition [9] of 2%, an inhibition [10] of 26% and an inhibition [11] of 13% were found for Cc1n[nH]c(C)c1-c1ccc2c(NC(=O)c3ccc(N4CCN(C)CC4)cc3)n[nH]c2c1 in this work. It also gave an inhibition [12] of 3%, an inhibition [13] of -0.7% and an inhibition [14] of 1.7%. For the same compound, the inhibition [15] was -3.3%, the inhibition [16] was 0.7% and the inhibition [17] was 4%. It also gave an inhibition [18] of 5%, an inhibition [19] of 15% and an inhibition [20] of 1.3%. For the same compound, the inhibition [21] was 2.7% and the inhibition [22] was 95%.
An inhibition [23] of -3% and an inhibition [24] of 8.7% were found for COC(=O)Nc1noc2cc(-c3c(-c4ccccn4)n[nH]c3C)ccc12 in this work.
